Earlier results, collected in patent US10828278B2, “Tesofensine and beta blocker combination formulations” (SANIONA A/S, priority 2015, dated 2020).

What was measured:
[1] = for half-life: in vivo
[2] = in vivo
[3] = long-term treatment, corrected for placebo and diet effects, obese patients

Q: Which results are given for `CCOC[C@@H]1[C@@H](c2ccc(Cl)c(Cl)c2)C[C@@H]2CC[C@H]1N2C` [Tesofensine, (1R,2R,3S,5S)-3-(3,4-dichlorophenyl)-2-(ethoxymethyl)-8-methyl-8-azabicyclo[3.2.1]octane]?
A: serum half-life ([1]; serum): nine; sagittal diameter [2]: significantly decreases; waist circumference [2]: significantly decreases; weight loss [3]: about 10%

Q: With `COc1ccccc1OCCNCC(O)COc1cccc2[nH]c3ccccc3c12` (racemic) [carvedilol, (±)-[3-(9H-carbazol-4-yloxy)-2-hydroxypropyl][2-(2-methoxyphenoxy)ethyl]amine] as the compound, how does the half-life [1] read?
A: Its half-life is 7 to 10 h.

Q: With `COCCc1ccc(OCC(O)CNC(C)C)cc1` (stereo not drawn) [metoprolol, 1-(Isopropylamino)-3-[4-(2-methoxyethyl)-phenoxy]-propan-2-ol] as the compound, how does the half-life [1] read?
A: Its half-life is 3 to 4 h.
